The record followed here is patent US20220401414A1, “TREATMENT AND PREVENTION OF A NEURODEGENERATIVE DISORDER” (Inflazome Limited, priority 2019, published 2022).

The nature of this series: Study B: blood-brain barrier penetration, striatal MetaQuant microdialysis in unilateral 6-OHDA lesioned mice after oral dosing. The format is in vivo, C57B1/6 mice. To be noted: 6-OHDA mice; for average peak levels in left and right striatal dialysate: MetaQuant dialysate, not corrected for recovery (recovery 61%); for time of average peak levels after compound administration: striatal dialysate. Here is the method:
The present study was designed to assess the free concentration of the compound of formula (I) in the left and right striatum of freely-moving adult male mice with a unilateral 6-hydroxydopamine (6-OHDA) lesion.
Adult male C57B1/6 mice (23-28 g; Envigo, the Netherlands) were used for the experiments. Following arrival, animals were housed in groups of 5 in polypropylene cages (40×50×20 cm) with wire mesh top in a temperature (22±2° C.) and humidity (55±15%) controlled environment on a 12 hour light cycle (07.00-19.00). Following surgery, animals were housed individually (cages 30×30×40 cm). Standard diet (SDS Diets, RM1 PL) and domestic quality mains water were available ad libitum.
Mice were anesthetized using isoflurane (2% and 500 mL/min O2). Before surgery, Finadyne (1 mg/kg, s.c.) was administered for analgesia during surgery and the post-surgical recovery period. A mixture of bupivacaine and epinephrine was used for local analgesia of the incision site.
The animals were placed in a stereotaxic frame (Kopf instruments, USA). 10 μg of 6-OHDA in 2 μL saline was slowly injected into the right striatum using a Hamilton needle (coordinates for the tip of the needle: AP=−0.5 mm (to bregma), ML=−2.0 mm (to midline), DV=-4.0 mm (to dura) with an angle of 0° and the incisor bar set at 0.0 mm.
In the same surgical procedure, guides for MetaQuant microdialysis probes with a 3 mm exposed polyacrylonitrile membrane (MQ-PAN 3/3) were implanted bilaterally into the left and right striatum (coordinates for the tip of the probe: AP=+0.8 mm (to bregma), ML=+/−1.7 mm (to midline), DV=−4.0 mm (to dura) with an angle of 0° and the incisor bar set at 0.0 mm. All coordinates were based on “The mouse brain in stereotaxic coordinates” by Paxinos and Franklin (2008). The probes were attached to the skull with a stainless-steel screw and dental cement.
The monosodium salt of the compound of formula (I) was formulated in sterilized tap water at concentrations of 0.2 and 4 mg/mL for oral dosing at 5 mL/kg; 1 mg/kg and 20 mg/kg, respectively.
After recovery from lesion and the guide surgery, on day 10, MetaQuant microdialysis probes were connected with flexible PEEK tubing (Western Analytical Products Inc. USA; PK005-020) to a microperfusion pump (Harvard) and perfused with a slow flow of artificial CSF (perfusate), containing 147 mM NaCl, 3.0 mM KCl, 1.2 mM CaCl2, and 1.2 mM MgCl2, at a flow rate of 0.12 μL/min and a carrier flow of UP+0.02 M FA+0.04% ascorbic acid at 0.8 μL/min. After a minimum of two hours of prestabilisation, microdialysis samples were collected in 60 minute intervals. […]
Levels of the compound of formula (I) in MetaQuant microdialysate samples were quantified by LC-MS/MS. […]

Each structure is given as a SMILES string.

As for `CC(C)n1ccc(S(=O)(=O)NC(=O)Nc2c3c(cc4c2CCC4)CCC3)n1` [compound of formula (I)], where the note is “1 mg/kg oral”, the “average peak levels in left and right striatal dialysate” value was in the range of 17 to 19 nM; the “time of average peak levels after compound administration” value was found to be 5 h. Also, where the note is “20 mg/kg oral”, the “average peak levels in left and right striatal dialysate” value was 280 to 300 nM; the “time of average peak levels after compound administration” value came to 6 h.
